US20230085307A1, “PYRIDAZINONE COMPOUND AND HERBICIDE” (NISSAN CHEMICAL CORPORATION, priority 2019, published 2023)

Key:
late watergrass = assay: Test Example 1: herbicidal activity, application before weed generation under submerged conditions (Table 16, symbol A); format: in vivo, late watergrass (Echinochloa oryzicola); settings: amount of applied herbicide 320 g/ha
Summary of the method: (§1)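 Alluvial soil was flooded to 4 cm depth, weed seeds were sown mixed and 2.5-leaf rice seedlings were transplanted. On sowing day, the compound's emulsion, diluted in water to a set dose, was applied to the water surface. Plants grew at 25–30 °C and were scored 0–5 after three weeks.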

persian speedwell = assay: Test Example 5: herbicidal effect by foliage application, plastic box (Table 20, symbol R); format: in vivo, Persian speedwell (Veronica persica)
Summary of the method: (§2)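 Plants sown in sterilized diluvial soil and grown 14 days in a greenhouse at 25° C to 30° C, then sprayed on the foliage with the compound's emulsion diluted in water to a predetermined herbicide amount. Injury to weeds and crops scored three weeks after application on a visual rating scale.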

barnyard grass [1] = assay: Test Example 5: herbicidal effect by foliage application, plastic box (Table 20, symbol H); format: in vivo, barnyard grass (Echinochloa crus-galli)
Summary of the method: as §2

Chinese sprangletop = assay: Test Example 3: herbicidal effect by foliage application, Wagner pot (Table 18, symbol D); format: in vivo, chinese sprangletop (Leptochloa chinensis)
Summary of the method: (§3)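 Plants were sown in alluvial soil held under 0.1–0.5 cm standing water and grown 14 days in a greenhouse at 25–30 °C. An emulsifiable formulation, water-diluted to the set dose, was then sprayed onto the foliage, and effects were scored three weeks later using previously defined criteria.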

oval-leafed pondweed = assay: Test Example 1: herbicidal activity, application before weed generation under submerged conditions (Table 16, symbol C); format: in vivo, oval-leafed pondweed (Monochoria vaginalis); settings: amount of applied herbicide 320 g/ha
Summary of the method: as §1

redroot pigweed = assay: Test Example 5: herbicidal effect by foliage application, plastic box (Table 20, symbol N); format: in vivo, redroot pigweed (Amaranthus retroflexus)
Summary of the method: as §2

Japanese bulrush = assay: Test Example 1: herbicidal activity, application before weed generation under submerged conditions (Table 16, symbol B); format: in vivo, Japanese bulrush (Schoenoplectus juncoides); settings: amount of applied herbicide 320 g/ha
Summary of the method: as §1

velvetleaf = assay: Test Example 5: herbicidal effect by foliage application, plastic box (Table 20, symbol M); format: in vivo, velvetleaf (Abutilon theophrasti)
Summary of the method: as §2

windgrass = assay: Test Example 5: herbicidal effect by foliage application, plastic box (Table 20, symbol L); format: in vivo, windgrass (Apera spica-venti)
Summary of the method: as §2

wild oat = assay: Test Example 5: herbicidal effect by foliage application, plastic box (Table 20, symbol I); format: in vivo, wild oat (Avena fatua)
Summary of the method: as §2

rice flat sedge = assay: Test Example 3: herbicidal effect by foliage application, Wagner pot (Table 18, symbol E); format: in vivo, rice flat sedge (Cyperus iria)
Summary of the method: as §3

lambsquarters = assay: Test Example 5: herbicidal effect by foliage application, plastic box (Table 20, symbol O); format: in vivo, lambsquarters (Chenopodium album)
Summary of the method: as §2

southern crabgrass = assay: Test Example 5: herbicidal effect by foliage application, plastic box (Table 20, symbol F); format: in vivo, southern crabgrass (Digitaria ciliaris)
Summary of the method: as §2

Italian ryegrass = assay: Test Example 5: herbicidal effect by foliage application, plastic box (Table 20, symbol K); format: in vivo, Italian ryegrass (Lolium multiflorum)
Summary of the method: as §2

barnyard grass [2] = assay: Test Example 3: herbicidal effect by foliage application, Wagner pot (Table 18, symbol H); format: in vivo, barnyard grass (Echinochloa crus-galli)
Summary of the method: as §3

blackgrass = assay: Test Example 5: herbicidal effect by foliage application, plastic box (Table 20, symbol J); format: in vivo, blackgrass (Alopecurus myosuroides)
Summary of the method: as §2

chickweed = assay: Test Example 5: herbicidal effect by foliage application, plastic box (Table 20, symbol P); format: in vivo, common chickweed (Stellaria media)
Summary of the method: as §2

green foxtail = assay: Test Example 5: herbicidal effect by foliage application, plastic box (Table 20, symbol G); format: in vivo, green foxtail (Setaria viridis)
Summary of the method: as §2

[3] = amount of applied herbicide 320 g/ha, foliage application after 14-day growth, evaluated three weeks after application
[4] = foliage application, 320 g/ha, three weeks after application
[5] = amount of applied herbicide 320 g/ha

`Cc1nn(C)c(=O)c(-c2c(-c3cccc4c3OCC4)sc3c(Cl)cccc23)c1O` [4-098] was tested, and the “Herbicidal effect, A: late watergrass” value (late watergrass) was 3 (Herbicidal rate of 40% or more and less than 70%), the “Herbicidal effect by foliage application, R: persian speedwell” value (persian speedwell; [3]) was 5 (Herbicidal rate of 90% or more (almost completely withered)) and the “Herbicidal effect by foliage application, H: barnyard grass” value (barnyard grass [1]; [3]) was 1 (Herbicidal rate of 5% or more and less than 20%). The “herbicidal effect on Chinese sprangletop (D)” value (Chinese sprangletop; 320 g/ha) was 3 (Herbicidal rate of 40% or more and less than 70%), the “Herbicidal effect, C: oval-leafed pondweed” value (oval-leafed pondweed) was 0 (Herbicidal rate of 5% or less (almost no effect)) and the “Herbicidal effect by foliage application, N: redroot pigweed” value (redroot pigweed; [3]) was 3 (Herbicidal rate of 40% or more and less than 70%). For the same molecule, the “Herbicidal effect, B: Japanese bulrush” value (Japanese bulrush) was 0 (Herbicidal rate of 5% or less (almost no effect)), the “Herbicidal effect by foliage application, M: velvetleaf” value (velvetleaf; [3]) was 3 (Herbicidal rate of 40% or more and less than 70%) and the “Herbicidal effect by foliage application, L: windgrass” value (windgrass; [3]) was 2 (Herbicidal rate of 20% or more and less than 40%). For the same molecule, the “Herbicidal effect by foliage application, I: wild oat” value (wild oat; [3]) was 0 (Herbicidal rate of 5% or less (almost no effect)), the “herbicidal effect on rice flat sedge (E)” value (rice flat sedge; 320 g/ha) was 3 (Herbicidal rate of 40% or more and less than 70%) and the “Herbicidal effect by foliage application, O: lambsquarters” value (lambsquarters; [3]) was 3 (Herbicidal rate of 40% or more and less than 70%). The “Herbicidal effect by foliage application, F: southern crabgrass” value (southern crabgrass; [3]) was 3 (Herbicidal rate of 40% or more and less than 70%), the “Herbicidal effect by foliage application, K: Italian ryegrass” value (Italian ryegrass; [3]) was 0 (Herbicidal rate of 5% or less (almost no effect)) and the “herbicidal effect on barnyard grass (H)” value (barnyard grass [2]; 320 g/ha) was 4 (Herbicidal rate of 70% or more and less than 90%). The “Herbicidal effect by foliage application, J: blackgrass” value (blackgrass; [3]) was 0 (Herbicidal rate of 5% or less (almost no effect)), the “Herbicidal effect by foliage application, P: chickweed” value (chickweed; [3]) was 5 (Herbicidal rate of 90% or more (almost completely withered)) and the “Herbicidal effect by foliage application, G: green foxtail” value (green foxtail; [3]) was 3 (Herbicidal rate of 40% or more and less than 70%).
In the case of `CSCCOc1ccc(-c2sc3ccc(F)cc3c2-c2c(OCCSC)c(C)nn(C)c2=O)cc1` [2-420], the “Herbicidal effect, A: late watergrass” value (late watergrass) is reported as 2 (Herbicidal rate of 20% or more and less than 40%), the “R: persian speedwell, herbicidal effect grade” value (persian speedwell; [4]) is reported as 4 (Herbicidal rate of 70% or more and less than 90%) and the “H: barnyard grass, herbicidal effect grade” value (barnyard grass [1]; [4]) is reported as 5 (Herbicidal rate of 90% or more (almost completely withered)). For the same molecule, the “herbicidal effect on D: Chinese sprangletop” value (Chinese sprangletop; [5]) was 3 (Herbicidal rate of 40% or more and less than 70%), the “Herbicidal effect, C: oval-leafed pondweed” value (oval-leafed pondweed) was 0 (Herbicidal rate of 5% or less (almost no effect)) and the “N: redroot pigweed, herbicidal effect grade” value (redroot pigweed; [4]) was 5 (Herbicidal rate of 90% or more (almost completely withered)). For the same molecule, the “Herbicidal effect, B: Japanese bulrush” value (Japanese bulrush) was 3 (Herbicidal rate of 40% or more and less than 70%), the “M: velvetleaf, herbicidal effect grade” value (velvetleaf; [4]) was 4 (Herbicidal rate of 70% or more and less than 90%) and the “L: windgrass, herbicidal effect grade” value (windgrass; [4]) was 4 (Herbicidal rate of 70% or more and less than 90%). For the same molecule, the “I: wild oat, herbicidal effect grade” value (wild oat; [4]) was 0 (Herbicidal rate of 5% or less (almost no effect)), the “herbicidal effect on E: rice flat sedge” value (rice flat sedge; [5]) was 4 (Herbicidal rate of 70% or more and less than 90%) and the “O: lambsquarters, herbicidal effect grade” value (lambsquarters; [4]) was 5 (Herbicidal rate of 90% or more (almost completely withered)). The “F: southern crabgrass, herbicidal effect grade” value (southern crabgrass; [4]) was 4 (Herbicidal rate of 70% or more and less than 90%), the “K: Italian ryegrass, herbicidal effect grade” value (Italian ryegrass; [4]) was 1 (Herbicidal rate of 5% or more and less than 20%) and the “herbicidal effect on H: barnyard grass” value (barnyard grass [2]; [5]) was 5 (Herbicidal rate of 90% or more (almost completely withered)). For the same molecule, the “J: blackgrass, herbicidal effect grade” value (blackgrass; [4]) was 4 (Herbicidal rate of 70% or more and less than 90%), the “P: chickweed, herbicidal effect grade” value (chickweed; [4]) was 4 (Herbicidal rate of 70% or more and less than 90%) and the “G: green foxtail, herbicidal effect grade” value (green foxtail; [4]) was 4 (Herbicidal rate of 70% or more and less than 90%).
